# Source: ChEMBL document CHEMBL5257081, “Discovery of novel PROTACs based on multi-targeted angiogenesis inhibitors” (Bioorg Med Chem Lett, 2023)
# Activity calls are given as the source filed them. The rule behind the calls is not given here.
# Tests used:
# [1] = tested on: EA.hy 926; assay: Induction of apoptosis in human EA.hy 926 cells assessed as necrotic cells at 10 uM incubated for 72 hrs by annexin-V/PI staining based flow cytometry analysis (reference value: 2.34%); type: functional
# [2] = tested on: EA.hy 926; assay: Induction of apoptosis in human EA.hy 926 cells assessed as viable cells at 1 uM incubated for 72 hrs by annexin-V/PI staining based flow cytometry analysis (reference value: 93.8%); type: functional; details: read-out: Activity
# [3] = tested on: EA.hy 926; assay: Induction of apoptosis in human EA.hy 926 cells assessed as late apoptotic cells at 0.1 uM incubated for 72 hrs by annexin-V/PI staining based flow cytometry analysis (reference value: 3.07%); type: functional
# [4] = tested on: EA.hy 926; assay: Induction of apoptosis in human EA.hy 926 cells assessed as early apoptotic cells at 20 uM incubated for 72 hrs by annexin-V/PI staining based flow cytometry analysis (reference value: 0.71%); type: functional
# [5] = tested on: EA.hy 926; assay: Induction of apoptosis in human EA.hy 926 cells assessed as late apoptotic cells at 40 uM incubated for 72 hrs by annexin-V/PI staining based flow cytometry analysis (reference value: 3.07%); type: functional
# [6] = tested on: EA.hy 926; assay: Induction of apoptosis in human EA.hy 926 cells assessed as early apoptotic cells at 1 uM incubated for 72 hrs by annexin-V/PI staining based flow cytometry analysis (reference value: 0.71%); type: functional
# [7] = target: T1, von Hippel-Lindau disease tumor suppressor/Serine/threonine-protein kinase B-raf (Homo sapiens) (UniProt P15056+P40337); assay: Protac activity at E3 ubiquitin ligase/BRAF in human EA.hy 926 cells assessed as degradation of BRAF protein at 10 to 60 uM incubated for 48 hrs by western blot assay; type: cell-based; details: dose 10-60 µM
# T1 sequence (P15056 whole entry, looked up): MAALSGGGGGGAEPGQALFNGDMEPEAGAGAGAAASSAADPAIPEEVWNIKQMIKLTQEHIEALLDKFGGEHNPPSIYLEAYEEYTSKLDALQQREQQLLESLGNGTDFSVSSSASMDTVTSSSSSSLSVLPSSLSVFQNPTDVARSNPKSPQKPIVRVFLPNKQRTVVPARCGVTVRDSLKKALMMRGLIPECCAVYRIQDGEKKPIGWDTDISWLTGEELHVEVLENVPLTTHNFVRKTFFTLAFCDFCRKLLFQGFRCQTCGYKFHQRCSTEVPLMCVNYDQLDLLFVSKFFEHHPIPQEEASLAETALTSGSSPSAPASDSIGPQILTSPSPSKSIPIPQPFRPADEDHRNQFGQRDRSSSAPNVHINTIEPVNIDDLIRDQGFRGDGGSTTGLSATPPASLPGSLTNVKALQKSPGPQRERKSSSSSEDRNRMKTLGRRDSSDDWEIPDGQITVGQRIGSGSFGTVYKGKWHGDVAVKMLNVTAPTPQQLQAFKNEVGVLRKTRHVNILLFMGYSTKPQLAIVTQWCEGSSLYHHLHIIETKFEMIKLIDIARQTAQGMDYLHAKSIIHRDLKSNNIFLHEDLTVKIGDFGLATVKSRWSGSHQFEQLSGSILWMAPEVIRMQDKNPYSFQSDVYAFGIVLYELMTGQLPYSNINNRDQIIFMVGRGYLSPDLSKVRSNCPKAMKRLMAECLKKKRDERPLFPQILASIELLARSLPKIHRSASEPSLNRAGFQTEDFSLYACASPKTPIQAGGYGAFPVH
# T1 sequence (P40337 whole entry, looked up): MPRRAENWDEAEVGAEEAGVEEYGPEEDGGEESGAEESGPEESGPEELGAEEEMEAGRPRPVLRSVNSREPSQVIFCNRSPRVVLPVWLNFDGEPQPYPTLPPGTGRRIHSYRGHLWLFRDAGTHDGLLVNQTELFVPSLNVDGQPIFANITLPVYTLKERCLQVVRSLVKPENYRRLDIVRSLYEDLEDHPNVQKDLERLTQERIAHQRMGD
# [8] = tested on: EA.hy 926; assay: Induction of apoptosis in human EA.hy 926 cells assessed as early apoptotic cells at 40 uM incubated for 72 hrs by annexin-V/PI staining based flow cytometry analysis (reference value: 0.71%); type: functional
# [9] = target: T2, von Hippel-Lindau disease tumor suppressor/Vascular endothelial growth factor receptor 2 (Homo sapiens, UniProt P35968+P40337); assay: Protac activity at VHL E3 ubiquitin ligase/VEGFR-2 in human EA.hy 926 cells assessed as degradation of VEGFR-2 protein at 10 to 60 uM incubated for 48 hrs by western blot assay; type: cell-based; details: dose 10-60 µM
# Target sequence in this assay (P35968 20-1356 limits assumed): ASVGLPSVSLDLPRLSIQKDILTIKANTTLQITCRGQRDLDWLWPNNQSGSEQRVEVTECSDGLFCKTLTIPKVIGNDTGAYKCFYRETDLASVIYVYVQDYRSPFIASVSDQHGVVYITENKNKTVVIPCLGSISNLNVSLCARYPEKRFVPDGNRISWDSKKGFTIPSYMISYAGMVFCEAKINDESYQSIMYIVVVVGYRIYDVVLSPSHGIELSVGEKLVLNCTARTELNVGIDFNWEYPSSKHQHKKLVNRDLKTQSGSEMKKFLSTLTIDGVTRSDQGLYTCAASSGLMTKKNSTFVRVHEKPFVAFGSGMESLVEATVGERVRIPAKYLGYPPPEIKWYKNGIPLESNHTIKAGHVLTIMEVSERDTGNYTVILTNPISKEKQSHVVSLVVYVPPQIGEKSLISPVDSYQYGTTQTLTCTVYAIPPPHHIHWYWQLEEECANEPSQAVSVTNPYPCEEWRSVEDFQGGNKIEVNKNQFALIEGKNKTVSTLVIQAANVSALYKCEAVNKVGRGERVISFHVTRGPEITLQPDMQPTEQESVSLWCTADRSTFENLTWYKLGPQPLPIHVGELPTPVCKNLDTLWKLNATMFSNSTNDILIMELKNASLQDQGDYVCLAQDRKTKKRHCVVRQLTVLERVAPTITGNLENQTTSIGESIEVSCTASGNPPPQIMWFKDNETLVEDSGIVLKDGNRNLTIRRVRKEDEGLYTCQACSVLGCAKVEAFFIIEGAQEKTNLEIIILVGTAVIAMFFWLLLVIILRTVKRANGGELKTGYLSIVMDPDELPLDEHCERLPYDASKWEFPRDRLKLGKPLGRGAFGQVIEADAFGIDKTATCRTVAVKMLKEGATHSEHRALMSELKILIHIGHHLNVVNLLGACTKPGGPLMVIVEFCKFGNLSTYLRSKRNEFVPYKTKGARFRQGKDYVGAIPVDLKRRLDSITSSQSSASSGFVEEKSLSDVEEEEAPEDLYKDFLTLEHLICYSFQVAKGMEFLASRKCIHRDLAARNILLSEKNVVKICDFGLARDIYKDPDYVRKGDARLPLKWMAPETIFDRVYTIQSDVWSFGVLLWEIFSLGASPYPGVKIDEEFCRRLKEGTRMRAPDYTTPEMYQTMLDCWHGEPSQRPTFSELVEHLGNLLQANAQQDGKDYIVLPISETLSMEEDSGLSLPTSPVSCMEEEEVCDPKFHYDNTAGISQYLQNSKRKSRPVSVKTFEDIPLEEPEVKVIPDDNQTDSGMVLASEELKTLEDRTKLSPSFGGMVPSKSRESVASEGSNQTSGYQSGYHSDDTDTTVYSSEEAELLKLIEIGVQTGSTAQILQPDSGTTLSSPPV
# Target sequence in this assay (P40337 whole entry partner): as the sequence (P40337 whole entry, looked up) above
# [10] = tested on: EA.hy 926; assay: Induction of apoptosis in human EA.hy 926 cells assessed as early apoptotic cells at 10 uM incubated for 72 hrs by annexin-V/PI staining based flow cytometry analysis (reference value: 0.71%); type: functional
# [11] = tested on: EA.hy 926; assay: Induction of apoptosis in human EA.hy 926 cells assessed as viable cells at 0.1 uM incubated for 72 hrs by annexin-V/PI staining based flow cytometry analysis (reference value: 93.8%); type: functional; details: read-out: Activity
# [12] = tested on: EA.hy 926; assay: Induction of apoptosis in human EA.hy 926 cells assessed as viable cells at 40 uM incubated for 72 hrs by annexin-V/PI staining based flow cytometry analysis (reference value: 93.8%); type: functional; details: read-out: Activity
# [13] = tested on: EA.hy 926; assay: Induction of apoptosis in human EA.hy 926 cells assessed as necrotic cells at 40 uM incubated for 72 hrs by annexin-V/PI staining based flow cytometry analysis (reference value: 2.34%); type: functional
# [14] = target: T1, von Hippel-Lindau disease tumor suppressor/Serine/threonine-protein kinase B-raf (Homo sapiens); assay: Protac activity at E3 ubiquitin ligase/BRAF in human EA.hy 926 cells assessed as degradation of BRAF protein at 30 uM preincubated with S5 for 2 hrs followed by compound addition and measured after 48 hrs by Western blot analysis; type: cell-based
# [15] = tested on: EA.hy 926; assay: Induction of apoptosis in human EA.hy 926 cells assessed as late apoptotic cells at 1 uM incubated for 72 hrs by annexin-V/PI staining based flow cytometry analysis (reference value: 3.07%); type: functional
# [16] = target: T2, von Hippel-Lindau disease tumor suppressor/Vascular endothelial growth factor receptor 2; assay: Protac activity at VHL E3 ubiquitin ligase/VEGFR-2 (unknown origin) assessed as […] by ADP-Glo Kinase assay
# Target sequence in this assay (P35968 whole entry): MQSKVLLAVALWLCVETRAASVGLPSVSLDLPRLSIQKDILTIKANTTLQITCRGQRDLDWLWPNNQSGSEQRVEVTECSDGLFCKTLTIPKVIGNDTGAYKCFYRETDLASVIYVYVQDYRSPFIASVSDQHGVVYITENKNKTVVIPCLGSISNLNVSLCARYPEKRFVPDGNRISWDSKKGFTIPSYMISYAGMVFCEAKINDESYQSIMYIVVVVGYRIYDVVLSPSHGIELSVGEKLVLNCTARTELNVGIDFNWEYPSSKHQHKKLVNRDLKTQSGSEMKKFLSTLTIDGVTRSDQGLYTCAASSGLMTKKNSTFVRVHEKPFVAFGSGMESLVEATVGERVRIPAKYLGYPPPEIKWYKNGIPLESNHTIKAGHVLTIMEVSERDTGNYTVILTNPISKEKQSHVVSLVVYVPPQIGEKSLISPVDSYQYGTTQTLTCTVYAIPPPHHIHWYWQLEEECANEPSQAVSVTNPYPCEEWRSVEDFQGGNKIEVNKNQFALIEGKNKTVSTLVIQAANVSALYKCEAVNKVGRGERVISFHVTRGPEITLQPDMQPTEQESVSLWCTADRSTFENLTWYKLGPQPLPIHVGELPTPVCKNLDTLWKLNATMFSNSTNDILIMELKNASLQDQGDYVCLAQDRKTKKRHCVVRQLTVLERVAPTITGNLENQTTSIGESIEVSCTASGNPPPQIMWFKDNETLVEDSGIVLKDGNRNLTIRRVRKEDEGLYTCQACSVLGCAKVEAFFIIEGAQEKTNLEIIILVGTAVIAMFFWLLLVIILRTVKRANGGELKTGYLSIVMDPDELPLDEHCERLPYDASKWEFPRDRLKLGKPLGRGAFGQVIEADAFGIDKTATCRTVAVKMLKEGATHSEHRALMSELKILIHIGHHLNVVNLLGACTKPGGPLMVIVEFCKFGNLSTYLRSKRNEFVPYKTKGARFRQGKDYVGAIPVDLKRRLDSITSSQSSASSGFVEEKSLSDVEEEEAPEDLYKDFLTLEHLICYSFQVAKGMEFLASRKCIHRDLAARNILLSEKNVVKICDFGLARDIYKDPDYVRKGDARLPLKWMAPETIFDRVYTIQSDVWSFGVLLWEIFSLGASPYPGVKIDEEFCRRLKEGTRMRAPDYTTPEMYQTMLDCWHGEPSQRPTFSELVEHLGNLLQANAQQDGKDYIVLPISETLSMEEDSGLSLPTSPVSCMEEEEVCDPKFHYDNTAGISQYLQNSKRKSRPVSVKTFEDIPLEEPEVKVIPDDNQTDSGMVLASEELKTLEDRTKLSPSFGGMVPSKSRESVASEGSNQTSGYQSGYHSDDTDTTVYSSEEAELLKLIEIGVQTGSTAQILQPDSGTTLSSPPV
# Target sequence in this assay (P40337 whole entry): as the sequence (P40337 whole entry, looked up) above
# [17] = tested on: EA.hy 926; assay: Induction of apoptosis in human EA.hy 926 cells assessed as early apoptotic cells at 0.1 uM incubated for 72 hrs by annexin-V/PI staining based flow cytometry analysis (reference value: 0.71%); type: functional
# [18] = tested on: MDA-MB-453; assay: Antiproliferative activity against human MDA-MB-453 cells assessed as inhibition of cell growth; type: functional, cell-based
# [19] = tested on: EA.hy 926; assay: Induction of apoptosis in human EA.hy 926 cells assessed as necrotic cells at 0.1 uM incubated for 72 hrs by annexin-V/PI staining based flow cytometry analysis (reference value: 2.34%); type: functional
# [20] = tested on: EA.hy 926; assay: Induction of apoptosis in human EA.hy 926 cells at 0.1 to 40 uM incubated for 72 hrs by annexin-V/PI staining based flow cytometry analysis; type: functional, cell-based; details: dose 0.1-40 µM
# [21] = tested on: EA.hy 926; assay: Induction of apoptosis in human EA.hy 926 cells assessed as viable cells at 10 uM incubated for 72 hrs by annexin-V/PI staining based flow cytometry analysis (reference value: 93.8%); type: functional; details: read-out: Activity
# [22] = tested on: EA.hy 926; assay: Induction of apoptosis in human EA.hy 926 cells assessed as necrotic cells at 1 uM incubated for 72 hrs by annexin-V/PI staining based flow cytometry analysis (reference value: 2.34%); type: functional
# [23] = tested on: EA.hy 926; assay: Induction of cell cycle arrest in human EA.hy 926 cells assessed as accumulation of cells at S pahse at 0.1 to 40 uM incubated for 48 hrs by propidium-iodide staining based flow cytometry analysis; type: functional; details: dose 0.1-40 µM
# [24] = Antiproliferative activity against human EA.hy 926 cells assessed as inhibition of cell growth; type: toxicity, cell-based
# [25] = tested on: EA.hy 926; assay: Induction of apoptosis in human EA.hy 926 cells assessed as late apoptotic cells at 10 uM incubated for 72 hrs by annexin-V/PI staining based flow cytometry analysis (reference value: 3.07%); type: functional
# [26] = target: T1, von Hippel-Lindau disease tumor suppressor/Serine/threonine-protein kinase B-raf (Homo sapiens); assay: Protac activity at E3 ubiquitin ligase/BRAF in human EA.hy 926 cells assessed as degradation of BRAF protein at 30 uM preincubated with VH032 for 2 hrs followed by compound addition and measured after 48 hrs by Western blot analysis; type: cell-based
# [27] = tested on: A549; assay: Antiproliferative activity against human A549 cells assessed as inhibition of cell growth; type: functional, cell-based
# [28] = tested on: HEK293; assay: Cytotoxicity against human HEK293 cells assessed as inhibition of cell growth; type: toxicity, cell-based
# [29] = tested on: EA.hy 926; assay: Induction of apoptosis in human EA.hy 926 cells assessed as viable cells at 20 uM incubated for 72 hrs by annexin-V/PI staining based flow cytometry analysis (reference value: 93.8%); type: functional; details: read-out: Activity
# [30] = target: T2, von Hippel-Lindau disease tumor suppressor/Vascular endothelial growth factor receptor 2; assay: Protac activity at VHL E3 ubiquitin ligase/VEGFR-2 in human EA.hy 926 cells assessed as degradation of VEGFR-2 protein preincubated with carfilzomib; type: cell-based
# Target sequence in this assay (P35968 20-1356 limits assumed): as the sequence (P35968 20-1356 limits assumed) above
# Target sequence in this assay (P40337 whole entry partner): as the sequence (P40337 whole entry, looked up) above
# [31] = tested on: EA.hy 926; assay: Induction of apoptosis in human EA.hy 926 cells assessed as necrotic cells at 20 uM incubated for 72 hrs by annexin-V/PI staining based flow cytometry analysis (reference value: 2.34%); type: functional
# [32] = tested on: EA.hy 926; assay: Induction of apoptosis in human EA.hy 926 cells assessed as late apoptotic cells at 20 uM incubated for 72 hrs by annexin-V/PI staining based flow cytometry analysis (reference value: 3.07%); type: functional
# [33] = tested on: EA.hy 926; assay: Induction of cell cycle arrest in human EA.hy 926 cells at 0.1 to 40 uM incubated for 48 hrs by propidium-iodide staining based flow cytometry analysis; type: functional; details: dose 0.1-40 µM
# [34] = target: T1, von Hippel-Lindau disease tumor suppressor/Serine/threonine-protein kinase B-raf (Homo sapiens); assay: Protac activity at E3 ubiquitin ligase/BRAF in human EA.hy 926 cells assessed as degradation of BRAF protein at 40 uM incubated for 4 to 48 hrs by western blot assay; type: cell-based; details: time 4-48 hrs, TDE = time-dependent effect
# [35] = target: T1, von Hippel-Lindau disease tumor suppressor/Serine/threonine-protein kinase B-raf (Homo sapiens); assay: Protac activity at E3 ubiquitin ligase/BRAF in human EA.hy 926 cells assessed as degradation of BRAF protein at 40 uM incubated for 48 hrs by western blot assay; type: cell-based
# [36] = target: T1, von Hippel-Lindau disease tumor suppressor/Serine/threonine-protein kinase B-raf (Homo sapiens); assay: Protac activity at E3 ubiquitin ligase/BRAF in human EA.hy 926 cells assessed as degradation of BRAF protein at 40 uM incubated for 4 hrs by western blot assay; type: cell-based
# [37] = target: T1, von Hippel-Lindau disease tumor suppressor/Serine/threonine-protein kinase B-raf (Homo sapiens); assay: Protac activity at E3 ubiquitin ligase/BRAF in human MDA-MB-231 cells assessed as degradation of BRAF protein; type: cell-based
# [38] = target: T1, von Hippel-Lindau disease tumor suppressor/Serine/threonine-protein kinase B-raf (Homo sapiens); assay: Protac activity at E3 ubiquitin ligase/BRAF in human U87 cells assessed as degradation of BRAF protein; type: cell-based
# [39] = target: T1, von Hippel-Lindau disease tumor suppressor/Serine/threonine-protein kinase B-raf (Homo sapiens); assay: Protac activity at E3 ubiquitin ligase/BRAF in human HepG2 cells assessed as degradation of BRAF protein; type: cell-based
# [40] = tested on: EA.hy 926; assay: Cytotoxicity against human EA.hy 926 cells; type: toxicity, cell-based
# [41] = target: T2, von Hippel-Lindau disease tumor suppressor/Vascular endothelial growth factor receptor 2; assay: Protac activity at VHL E3 ubiquitin ligase/VEGFR-2 in human EA.hy 926 cells assessed as degradation of VEGFR-2 protein at […]; type: cell-based
# Target sequence in this assay (P35968 20-1356 limits assumed): as the sequence (P35968 20-1356 limits assumed) above
# Target sequence in this assay (P40337 whole entry partner): as the sequence (P40337 whole entry, looked up) above
smiles,measurement,setting,value
Cc1ncsc1-c1ccc(CNC(=O)[C@@H]2C[C@@H](O)CN2C(=O)[C@@H](NC(=O)CCCCCC(=O)n2nc(N)c3c(-c4cccc(NC(=O)Nc5cccc(Cl)c5)c4)cccc32)C(C)(C)C)cc1,Activity,[1],5.23%
same,viability at 1 µM,[2],93.1%
same,Activity,[3],1.77%
same,Activity,[4],0.86%
same,Activity,[5],2.62%
same,Activity,[6],0.96%
same,Activity,[7],Active
same,Activity,[8],1.44%
same,Activity,[9],Active
same,Activity,[10],0.77%
same,viability at 0.1 µM,[11],91.3%
same,viability at 40 µM,[12],92.2%
same,Activity,[13],3.7%
same,Activity,[14],inactive
same,Activity,[15],3.2%
same,IC50,[16],0.0422 µM
same,Activity,[17],0.57%
same,IC50,[18],> 100 µM
same,Activity,[19],6.32%
same,Activity,[20],Active
same,viability at 10 µM,[21],91.4%
same,Activity,[22],2.75%
same,Activity,[23],Active
same,IC50,[24],20 µM
same,Activity,[25],2.62%
same,Activity,[26],inactive
same,IC50,[27],> 100 µM
same,Activity,[28],Non-Toxic
same,viability at 20 µM,[29],88.1%
same,Activity,[30],inactive
same,Activity,[31],7.08%
same,Activity,[32],3.93%
Cc1ncsc1-c1ccc(CNC(=O)[C@@H]2C[C@@H](O)CN2C(=O)[C@@H](NC(=O)CCCCCCCCCCC(=O)n2nc(N)c3c(-c4cccc(NC(=O)Nc5cccc(Cl)c5)c4)cccc32)C(C)(C)C)cc1,Activity,[7],Active
same,Activity,[9],Active
same,Activity,[33],inactive
same,Activity,[34],Tde
same,IC50,[16],0.00707 µM
same,IC50,[18],> 100 µM
same,Activity,[20],Active
same,IC50,[24],21 µM
same,IC50,[27],> 100 µM
same,Activity,[35],Active
same,Activity,[28],Non-Toxic
same,Activity,[36],Active
Cc1ncsc1-c1ccc(CNC(=O)[C@@H]2C[C@@H](O)CN2C(=O)[C@@H](NC(=O)CCCCCCCCCCCCCCC(=O)n2nc(N)c3c(-c4cccc(NC(=O)Nc5cccc(Cl)c5)c4)cccc32)C(C)(C)C)cc1,Activity,[7],Dose-Dependent Effect
same,Activity,[37],inactive
same,Activity,[38],Active
same,IC50,[16],0.00212 µM
same,Activity,[39],Active
same,IC50,[18],> 100 µM
same,IC50,[24],28.5 µM
same,IC50,[27],> 100 µM
same,Activity,[28],Non-Toxic
CC(C)C[C@H](NC(=O)[C@H](CCc1ccccc1)NC(=O)CN1CCOCC1)C(=O)N[C@@H](Cc1ccccc1)C(=O)N[C@@H](CC(C)C)C(=O)[C@@]1(C)CO1 [CARFILZOMIB],Activity,[40],Toxic
same,Activity,[41],Active
Nc1n[nH]c2cccc(-c3cccc(NC(=O)Nc4cccc(Cl)c4)c3)c12,IC50,[18],> 100 µM
same,IC50,[24],7.33 µM
same,IC50,[27],15.8 µM
same,Activity,[28],Non-Toxic
